Here are results for four compounds from patent US20250051263A1, “NOVEL IONIZABLE LIPIDS AND LIPID NANOPARTICLES AND METHODS OF USING THE SAME” (Sail Biomedicines, Inc., priority 2021, published 2025).

Values joined by “and” are separate entries in the source; they are usually repeats but may differ in a detail not shown here. Identical values can stand only once.

A short description of data set [1]: mRNA encapsulation efficiency, Quant-iT RiboGreen RNA Assay. The format is physicochemical. The settings on record: LNP ionizable lipid:DSPC:Plant Chol.:DMPE-PEG2k 50:10:38.5:1.5.
Assay in data set [2]: as above
The format is physicochemical.

Data set [3] can be described thus: LNP size and polydispersity, Zetasizer Ultra. The format is physicochemical. The procedure, abridged:
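Lipids dissolved in ethanol were combined with mRNA solution at a 1:3 volume ratio on a NanoAssemblr Ignite at 9 mL/min total flow. Particles were dialyzed in Slide-A-Lyzer G2 cassettes (10 k MWCO) against 1×PBS, then overnight at 4° C., concentrated with Amicon Ultra filters (100 k MWCO), and measured for size and polydispersity on a Zetasizer Ultra.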

In the next data set the test system is Balb/c mice. Briefly: EPO levels in plasma by EPO MSD kit after IV injection of EPO mRNA LNP. The format is in vivo.
[4] abbreviates: Example 5 LNP lipid:DOPE:Plant Cholesterol:DMPE-PEG2k 35:16:46.5:2.5, FLUC/EPO 1:1 mRNA, N:P 6:1.
Where [5] appears, read: LNP ionizable lipid:DOPE:Plant Chol.:DMPE-PEG2k 35:16:46.5:2.5 (Table 1).
[6] abbreviates: LNP ionizable lipid:DSPC:Plant Chol.:DMPE-PEG2k 50:10:38.5:1.5.
The mark [7] stands for this setting: Example 5 LNP (DOPE 35:16:46.5:2.5), 5 μg FLUC + 5 μg EPO.
Where [8] appears, read: LNP lipid:DSPC:Plant Chol.:DMPE-PEG2k 50:10:38.5:1.5, 5 ug Fluc+5 ug EPO mRNA.
[9] abbreviates: LNP lipid:DOPE:Plant Chol.:DMPE-PEG2k 35:16:46.5:2.5 (Table 1), 5 ug Fluc+5 ug EPO mRNA.

In the case of `CCCCCCCCCCCOC(=O)CCCCCN(CCCCCCCC(=O)OC(CCCCCCCC)CCCCCCCC)CCOC(=O)OCCN(CCCCCCCC(=O)OC(CCCCCCCC)CCCCCCCC)CCCCCC(=O)OCCCCCCCCCCC` [Compound 2218, 1-octylnonyl 8-[2-[2-[[8-(1-octylnonoxy)-8-oxo-octyl]-(6-oxo-6-undecoxy-hexyl)amino]ethoxycarbonyloxy]ethyl-(6-oxo-6-undecoxy-hexyl)amino]octanoate], the “% EE” value in data set [1] is 86.5%; in data set [2] (setting [4]) it was 91.7%; in data set [2] (setting [5]), 94.4% and 91.7%. The PDI was 0.09 in data set [3] (setting [4]); 0.17 and 0.09 in data set [3] (setting [5]); 0.05 in data set [3] (setting [6]). In addition, the “Size (nm)” value is 70.0 nm in data set [3] (setting [4]); 71.28 nm and 70.00 nm in data set [3] (setting [5]); 96.55 nm in data set [3] (setting [6]). Moreover, the hEPO with Balb/c mice (setting [7]) stood at 9.6E+01; in the data set on Balb/c mice (setting [8]), 8.40E+01.

`C=C(CN(CCCCCCCC(=O)OC(CCCCCCCC)CCCCCCCC)CCCCCC(=O)OCCCCCCCCCCC)CN(CCCCCCCC(=O)OC(CCCCCCCC)CCCCCCCC)CCCCCC(=O)OCCCCCCCCCCC` [Compound 2253, 1-octylnonyl 8-[2-[[[8-(1-octylnonoxy)-8-oxo-octyl]-(6-oxo-6-undecoxy-hexyl)amino]methyl]allyl-(6-oxo-6-undecoxy-hexyl)amino]octanoate]: the “% EE” value turned out to be 27.3% in data set [1], 82.7% in data set [2] (setting [4]) and 82.7% in data set [2] (setting [5]). For the same compound, the PDI in data set [3] (setting [4]) stood at 0.23; in data set [3] (setting [5]), 0.23; in data set [3] (setting [6]) it was 0.18. For the same compound, the entries for the “Size (nm)” value in data set [3] (setting [4]), in data set [3] (setting [5]) and in data set [3] (setting [6]) were 107.9 nm, 107.87 nm and 120.70 nm, respectively. Further, the hEPO was found to be 8.9E+01 with Balb/c mice (setting [7]), 8.89E+01 in the data set with Balb/c mice (setting [9]) and 8.89E+01 in the data set on Balb/c mice (setting [8]).

Turning to `CCCCCCCCCCCOC(=O)CCCCCN(CCCCCCCC(=O)OC(CCCCCCCC)CCCCCCCC)CCNC(=O)CC(=O)NCCN(CCCCCCCC(=O)OC(CCCCCCCC)CCCCCCCC)CCCCCC(=O)OCCCCCCCCCCC` [Compound 2220, 1-octylnonyl 8-[2-[[3-[2-[[8-(1-octylnonoxy)-8-oxo-octyl]-(6-oxo-6-undecoxy-hexyl)amino]ethylamino]-3-oxo-propanoyl]amino]ethyl-(6-oxo-6-undecoxy-hexyl)amino]octanoate], the “% EE” value in data set [1] turned out to be 91%; in data set [2] (setting [4]) it was 94.4%. The PDI was 0.17 in data set [3] (setting [4]) and 0.03 in data set [3] (setting [6]). Further, the “Size (nm)” value in data set [3] (setting [4]) stood at 71.3 nm; in data set [3] (setting [6]), 89.17 nm. Also, the hEPO is 7.1E+05 in the data set with Balb/c mice (setting [7]) and 6.99E+05 in the data set on Balb/c mice (setting [8]).

In the case of `CCCCCCCCCCCOC(=O)CCCCCN(CCCCCCCC(=O)OC(CCCCCCCC)CCCCCCCC)CCNC(=O)/C=C/C(=O)NCCN(CCCCCCCC(=O)OC(CCCCCCCC)CCCCCCCC)CCCCCC(=O)OCCCCCCCCCCC` [Compound 2252, 1-octylnonyl 8-[2-[[(E)-4-[2-[[8-(1-octylnonoxy)-8-oxo-octyl]-(6-oxo-6-undecoxy-hexyl)amino]ethylamino]-4-oxo-but-2enoyl]amino]ethyl-(6-oxo-6-undecoxy-hexyl)amino]octanoate], the results for the “% EE” value in data set [1], in data set [2] (setting [4]) and in data set [2] (setting [5]) were 70.4%, 94.5% and 94.5%, respectively. Besides, the values for the PDI in data set [3] (setting [4]), in data set [3] (setting [5]) and in data set [3] (setting [6]) were 0.13, 0.13 and 0.05, respectively. Further, the “Size (nm)” value in data set [3] (setting [4]) turned out to be 70.0 nm; in data set [3] (setting [5]) it was 69.98 nm; in data set [3] (setting [6]), 126.40 nm. For the same compound, the values for the hEPO in the data set on Balb/c mice (setting [7]), with Balb/c mice (setting [9]) and in the data set with Balb/c mice (setting [8]) were 5.6E+05, 5.62E+05 and 2.03E+04, respectively.
